We go through 19 compounds from ChEMBL document CHEMBL1255199, “Endochin optimization: structure-activity and structure-property relationship studies of 3-substituted 2-methyl-4(1H)-quinolones with antimalarial activity” (J Med Chem, 2010).

pEC50: −log10 of the molar value. Values after ≈ are worked out from the molar mass of the structure shown.

Series [1] concerns Plasmodium falciparum. The series can be described thus: Antimalarial activity against chloroquine, mefloquine, pyrimethamine and atovaquone-resistant Plasmodium falciparum TM90-C2B infected in human A+ erythrocytes after 72 hrs by SYBR Green I assay. It counts as functional, organism-based.
For series [2], the system named is Plasmodium falciparum. Kind of series: Antimalarial activity against chloroquine and pyrimethamine-resistant Plasmodium falciparum W2 infected in human A+ erythrocytes after 72 hrs by SYBR Green I assay. It counts as functional, organism-based. To be noted: W2, 72 h.
Series [3] deals with J774. Kind of series: Cytotoxicity against mouse J774 cells. It counts as cell-based.
Series [4] can be described thus: Lipophilicity, log D of the compound at pH 7.4. The following applies: buffer.
Series [5] in a line: Passive transcellular permeability of the compound at pH 7.4 by PAMPA. It counts as ADME. The following applies: read-out: permeability.
A short description of series [6]: Passive transcellular permeability of the compound at pH 4 by PAMPA. To be noted: for Papp: read-out: permeability. It is filed as ADME.
Series [7] is described as follows: Half life in mouse liver microsomes. It counts as ADME, Microsome.
The nature of series [8]: Half life in human liver microsomes. It counts as ADME, Microsome.
A short description of series [9]: in vitro. To be noted: mouse, J774 cells.
Description: Cytotoxicity index, ratio of EC50 for mice (Mus musculus) J774 cells to EC50 for chloroquine, mefloquine, pyrimethamine and atovaquone-resistant Plasmodium falciparum TM90-C2B
Series [10] in a line: physchem. To be noted: aqueous, pH 7.4.
Description: Aqueous solubility of the compound at pH 7.4 by HPLC analysis

In the case of `COc1cc2[nH]c(C)c(-c3ccccc3)c(=O)c2cc1Cl`, the pEC50 in series [1] is 7.82; in series [2] it was 7.58; in [3], below 4.48. This compound had a pH-dependent lipophilicity (logD) in series [4] of 1.65. The Papp in series [5] came to 48.3 ×10⁻⁶ cm/s; in [6], 105 ×10⁻⁶ cm/s. Moreover, the half-life in series [7] was 21.3 min; in series [8] it was 128 min. Also, the selectivity ratio in series [9] is above 2170. In addition, the concentration in solution in series [10] (solubility) came to 5 µM (≈ 1.5 µg/mL).
Turning to `COc1cc2[nH]c(C)c(-c3ccccc3)c(=O)c2cc1Br`, the pEC50 in [1] is 7.60; in [2], 7.10; in [3], below 4.54. Also, in [4], the logD worked out at 2.2. In addition, the Papp in series [5] was 330 ×10⁻⁶ cm/s; in [6], 306 ×10⁻⁶ cm/s. In addition, the selectivity ratio in series [9] is above 1160. The compound further returned a solubility in series [10] below 2 µM.
On to `CCc1c(C)[nH]c2cc(OC)c(F)cc2c1=O`, for which the pEC50 was 6.79 in [1], 6.43 in series [2] and 5.03 in [3]. In [4], this compound had a logD of 1.2. Besides, the Papp in series [5] is 19.1 ×10⁻⁶ cm/s. This compound returned a permeability in series [6] of 22.9 ×10⁻⁶ cm/s. In addition, the selectivity ratio in series [9] worked out at 58.3. In series [10], this compound returned a solubility below 2 µM.
As to `COc1cc2[nH]c(C)c(C(C)C)c(=O)c2cc1Cl`, the negative-log EC50 (pEC50) in [1] is 6.71; in series [2], 6.95; in series [3] it was 4.66. The same compound displayed a logD in series [4] of 2.84. Further, the Papp is 187 ×10⁻⁶ cm/s in [5] and 281 ×10⁻⁶ cm/s in [6]. In addition, the selectivity ratio in series [9] came out at 112. In [10], this compound showed a solubility above 20 µM.
For the compound `CCc1c(C)[nH]c2cc(OC)c(Br)cc2c1=O`, the values for the pEC50 in [1], in series [2] and in [3] were 7.44, 6.75 and below 4.47, respectively. The compound further had a logD in series [4] of 1.7. In addition, the Papp is 75.1 ×10⁻⁶ cm/s in [5] and 81.9 ×10⁻⁶ cm/s in [6]. In series [9], the selectivity ratio was above 933. This compound registered a solubility in [10] of 2 µM (≈ 0.592 µg/mL).
With `COc1cc2[nH]c(C)c(/C=C/C(=O)OC(C)(C)C)c(=O)c2cc1Cl`, the results for the pEC50 in series [1], in series [2] and in series [3] were 7.27, 7.21 and below 4.54, respectively. Also, the logD in [4] turned out to be 1.81. Further, the Papp in series [5] amounted to 261 ×10⁻⁶ cm/s; in [6], 249 ×10⁻⁶ cm/s. Further, the half-life was 43.9 min in series [7] and 60.3 min in [8]. Also, the selectivity ratio in series [9] is above 533. In [10], this compound registered a solubility of 5 µM (≈ 1.75 µg/mL).
In the case of `COc1cccc2[nH]c(C)c(Cc3ccccc3)c(=O)c12`, the pEC50 was 5.68 in series [1], 5.19 in series [2] and 4.95 in series [3]. In addition, the logD in series [4] amounted to 2.11. Also, the Papp in series [5] was 158 ×10⁻⁶ cm/s; in series [6], 69.8 ×10⁻⁶ cm/s. Besides, the selectivity ratio in [9] was 5.33. This compound displayed a solubility in series [10] above 20 µM.
For `CCCCCCCc1c(C)nc2cc(OC)ccc2c1O`, the results for the pEC50 in series [1], in series [2] and in series [3] were 7.33, 8.07 and below 4.46, respectively. The compound further displayed a logD in series [4] of 3.69. Further, in series [5], the Papp is 679 ×10⁻⁶ cm/s. In series [6], this compound displayed a permeability of 1019.9 ×10⁻⁶ cm/s. Further, the values for the half-life in series [7] and in [8] were 7.9 min and 10.2 min, respectively. Moreover, in [9], the selectivity ratio is above 747. This compound displayed a solubility in series [10] of 2 µM (≈ 0.575 µg/mL).
For the compound `Cc1[nH]c2ccccc2c(=O)c1-c1ccccc1`, the pEC50 is 6.27 in [1], 6.15 in series [2] and below 4.37 in series [3]. The same compound displayed a log distribution coefficient (logD) in series [4] of 2.02. In addition, the results for the Papp in series [5] and in series [6] were 33 ×10⁻⁶ cm/s and 16.6 ×10⁻⁶ cm/s, respectively. For the same compound, the selectivity ratio in [9] was above 79.1. The solubility in series [10] is above 20 µM.
For the compound `COc1cc2[nH]c(C)cc(=O)c2cc1Cl`, the pEC50 in series [1] was 5.73; in [2], 5.50; in series [3], below 4.35. In addition, the logD in [4] is 1.95. Also, the Papp was 25.2 ×10⁻⁶ cm/s in series [5] and 11.9 ×10⁻⁶ cm/s in series [6]. Also, the half-life in [7] was 62.4 min; in [8], 161 min. Besides, in series [9], the selectivity ratio was above 24.1. Moreover, the solubility in [10] stood at 2 µM (≈ 0.447 µg/mL).
As for `Cc1[nH]c2ccc(Cl)c(Cl)c2c(=O)c1-c1ccccc1`, the pEC50 was 5.49 in series [1], 6.18 in series [2] and below 4.48 in series [3]. The pH-dependent lipophilicity (logD) in series [4] was found to be 2.83. The values for the Papp in [5] and in [6] were 192 ×10⁻⁶ cm/s and 285 ×10⁻⁶ cm/s, respectively. Moreover, the selectivity ratio in series [9] was above 10.2. This compound also registered a solubility in series [10] below 2 µM.
Regarding `Cc1[nH]c2ccccc2c(=O)c1Cc1ccccc1`, the values for the pEC50 in [1], in series [2] and in [3] were 5.21, below 5.30 and below 4.40, respectively. Besides, the logD in [4] came to 1.93. The figures for the Papp in series [5] and in [6] were 102 ×10⁻⁶ cm/s and 110 ×10⁻⁶ cm/s, respectively. In addition, the selectivity ratio in series [9] was above 6.5. In [10], this compound returned a solubility of 10 µM (≈ 2.49 µg/mL).
As for `COc1cccc2c(=O)c(Cc3ccccc3)c(C)[nH]c12`, the figures for the pEC50 in series [1], in [2] and in series [3] were below 5.26, below 5.65 and below 4.45, respectively. Also, the logD in series [4] was 2.24. In addition, the Papp stood at 125 ×10⁻⁶ cm/s in series [5] and 164 ×10⁻⁶ cm/s in series [6]. Further, in series [9], the selectivity ratio is above 6.5. In addition, in series [10], the solubility is above 20 µM.
For the compound `CCc1c(C)[nH]c2cc(OC)c(Cl)cc2c1=O`, the pEC50 was 7.56 in [1], 7.32 in [2] and 4.72 in [3]. Besides, the logD in series [4] turned out to be 2.43. In addition, the Papp in series [5] is 57.3 ×10⁻⁶ cm/s; in series [6], 96.4 ×10⁻⁶ cm/s. For the same compound, the figures for the half-life in series [7] and in series [8] were 28.4 min and 33.8 min, respectively. Also, in [9], the selectivity ratio is 689. In addition, the concentration in solution in series [10] (solubility) came to 10 µM (≈ 2.52 µg/mL).
Take `Cc1[nH]c2ccccc2c(=O)c1C1CCCCC1`: the pEC50 was 5.65 in series [1], 6.23 in series [2] and below 4.38 in series [3]. Moreover, the log distribution coefficient (logD) in series [4] was determined as 2.45. Further, the results for the Papp in [5] and in [6] were 230 ×10⁻⁶ cm/s and 260 ×10⁻⁶ cm/s, respectively. Further, the selectivity ratio in series [9] was above 18.6. This compound showed a solubility in series [10] of 10 µM (≈ 2.41 µg/mL).
`Cc1[nH]c2ccccc2c(=O)c1/C=C/c1cccc([N+](=O)[O-])c1`: the results for the pEC50 in series [1], in [2] and in [3] were 5.83, 5.34 and below 4.49, respectively. This compound also registered a logD in [4] of 2.95. Also, the Papp in series [5] was determined as 602 ×10⁻⁶ cm/s; in [6], 508 ×10⁻⁶ cm/s. The selectivity ratio in series [9] was above 21.9. The compound further had a solubility in series [10] below 2 µM.
In the case of `Cc1[nH]c2ccccc2c(=O)c1Br`, the negative logarithm of the EC50 (pEC50) in series [1] is 7.11; in [2], 6.34; in series [3], below 4.38. For the same compound, in [4], the pH-dependent lipophilicity (logD) was 1.67. Also, the results for the Papp in series [5] and in series [6] were 13.6 ×10⁻⁶ cm/s and 8.19 ×10⁻⁶ cm/s, respectively. Also, the selectivity ratio in series [9] was above 542. The compound also yielded a solubility in series [10] above 20 µM.
`Cc1[nH]c2cc(Cl)ccc2c(=O)c1Cc1ccccc1`: the negative-log EC50 (pEC50) in series [1] was 4.80; in series [2], 5.66; in [3], below 4.45. In series [4], the logD is 2.69. Further, the Papp is 392 ×10⁻⁶ cm/s in [5] and 341 ×10⁻⁶ cm/s in series [6]. Moreover, the selectivity ratio in series [9] is above 2.2. Besides, in series [10], the solubility was below 2 µM.
In the case of `CCCCCCCc1c(C)[nH]c2cc(OC)c(Cl)cc2c1=O`, the pEC50 is 8.53 in series [1], 7.91 in series [2] and below 4.43 in [3]. The compound further had a logD in series [4] below 3.83. The Papp in series [5] and in series [6] was below 0.01 ×10⁻⁶ cm/s throughout. In [9], the selectivity ratio is above 10500. In [10], this compound showed a solubility below 2 µM.
